Assay results published in US10568913B2, “Method for generating mature β-like cells” (The University of Western Australia, priority 2013, dated 2020).

Tested on: Ngn3+ progenitor-containing E-cad+ cells
Experiment: Insulin-producing (MIPGFP+) cell differentiation from sorted E-cad+ cells of E15.5 MIPGFP mouse pancreas
Assay type: cell-based
Conditions: for effect on Nic-induced differentiation: co-culture with Nic 10 mM (FIG. 1g, 5, 13, 15); for promotion of MIPGFP+ insulin-producing cell differentiation by the molecule on its own: compound alone, without Nic, day 4 (FIG. 1g, 5a)
Experimental: Approximately 7,500 E15.5 [at which the number of Ngn3^+ progenitors is peaked] mouse fetuses from both MIPGFP and Ngn3-GPF/RIP-DsRed lines were used for enrichment/purification of Ngn3^+ progenitors. Mouse pancreases were dissected under a stereoscope (Olympus, Tokyo, Japan). Eleven human fetal pancreases were collected from 18-22 week-fetuses (Table 1) and minced. Both mouse and human pancreases were enzymatically dissociated into single cells under aseptic conditions. […] After each incubation with antibodies, cells were washed twice with FACS buffer (0.1% bovine serum albumin in phosphate buffered saline) and finally re-suspended in this buffer containing 1 μg/ml propidium iodide (PI) or 4′,6-diamidino-2-phenylindole (DAPI) for sorting (FACSAria II, Becton Dickson Labware, Bedford). The purity of sorted cells was determined by post-sort analysis.
Sorted β-cell progenitor-enriched cells or Ngn3^+ β-cell progenitors were differentiated in 96-, 12- or 6-well plates (BD Labware). […] Growth factor-reduced Matrigel (200 μg/ml, BD Biosciences) was overlayed onto cells in the presence of various potential regulators. Thyrotropin releasing hormone (TRH, 100 nM) was purchased from Auspep (Melbourne, Australia). […] Cultures were incubated in 10% CO2 90% air at 37° C., for up to 8 days.
The number of β-like cells was directly quantified under a fluorescence microscope. To verify the accuracy of cell count, at least five randomly chosen fields per well were microphotographed under the inverse IX71 Olympus fluorescence microscope (Olympus, Tokyo, Japan) and the number of β-like cells determined with the Image Pro Plus software installed in the computer.

Oc1ccc(/C=C/c2cc(O)cc(O)c2)cc1 [resveratrol, 5-[(1E)-2-(4-hydroxyphenyl)ethenyl]-1,3-benzenediol]
effect on Nic-induced differentiation: completely abolished
cellular viability (in combination with Nic): without apparently affecting cellular viability

exendin-4 [Ex4]
promotion of MIPGFP+ insulin-producing cell differentiation by the molecule on its own: did not yield

COc1cc(/C=C/C(=O)CC(=O)/C=C/c2ccc(O)c(OC)c2)ccc1O [curcumin, (E, E)-1,7-bis (4-hydroxy-3-methoxyphenyl)-1,6-heptadiene-3,5-dione]
effect on Nic-induced differentiation: significantly reduced

CC(=O)C(=O)[O-].[Na+] [sodium pyruvate]
effect on Nic-induced differentiation: significantly inhibited

CC(/C=C/C(=O)NO)=C\[C@@H](C)C(=O)c1ccc(N(C)C)cc1 [trichostatin A]
effect on Nic-induced differentiation: significantly (p<0.05) reduced

C[C@H](NC(=O)Cc1cc(F)cc(F)c1)C(=O)N[C@H]1N=C(c2ccccc2)c2ccccc2N(C)C1=O [γ-secretase inhibitor XXI]
promotion of MIPGFP+ insulin-producing cell differentiation by the molecule on its own: did not yield

NC(=O)c1ccncc1 [INic, isonicotinamide]
number of MIPGFP+ cells compared to Nic (INic 10 mM alone, days 4, 6 and 8): approximately half

CCCC(=O)[O-].[Na+] [sodium butyrate]
effect on Nic-induced differentiation: significantly (p<0.05) reduced

NC(=O)[C@@H]1CCCN1C(=O)[C@H](Cc1cnc[nH]1)NC(=O)[C@@H]1CCC(=O)N1 [TRH, Thyrotropin releasing hormone]
promotion of MIPGFP+ insulin-producing cell differentiation by the molecule on its own: did not yield

6-chloro-2,3,4,9-tetrahydro-1H-carbazo-1-carboxamide [EX527]
effect on Nic-induced differentiation: did reduce Nic-induced differentiation
promotion of MIPGFP+ insulin-producing cell differentiation by the molecule on its own: did not significantly promote differentiation

O=C(O)C(Cc1c[nH]c2ccccc12)N1C(=O)c2ccccc2C1=O (stereo not drawn) [RG-108, α-(1,3-dihydro-1,3-dioxo-2H-isoindo1-2-yl)-1H-indole-3-propanoic acid]
promotion of MIPGFP+ insulin-producing cell differentiation by the molecule on its own: did not yield

O=C1Nc2cc(Br)ccc2/C1=C1/Nc2ccccc2/C1=N\O [BIO, (2′Z,3′E)-6-bromoindirubin-3′-oxime]
effect on Nic-induced differentiation: suppressed or abolished
promotion of MIPGFP+ insulin-producing cell differentiation by the molecule on its own: did not yield

O=c1c(O)c(-c2ccc(O)c(O)c2)oc2cc(O)cc(O)c12 [quercetin]
effect on Nic-induced differentiation: suppressed or abolished
promotion of MIPGFP+ insulin-producing cell differentiation by the molecule on its own: did not yield

NC(=O)c1ccc[n+]([C@@H]2O[C@H](COP(=O)([O-])O)[C@@H](O)[C@H]2O)c1 [nicotinamide mononucleotide, β-nicotinamide mononucleotide]
effect on Nic-induced differentiation: did not modify

C[C@H](NC(=O)Cc1cc(F)cc(F)c1)C(=O)N[C@H](C(=O)OC(C)(C)C)c1ccccc1 [DAPT]
promotion of MIPGFP+ insulin-producing cell differentiation by the molecule on its own: did not yield

CC(C)C[C@H](NC(=O)[C@H](Cc1ccccc1)C[C@@H](O)[C@H](Cc1ccccc1)NC(=O)OC(C)(C)C)C(=O)N[C@@H](Cc1ccccc1)C(N)=O [γ-secretase inhibitor X]
promotion of MIPGFP+ insulin-producing cell differentiation by the molecule on its own: did not yield
